Tested on: L929 cells
Assay: Cytotoxicity evaluation, agar overlay, ASTM F895-84 / ISO 10993-5
Type: cell-based
Set-up: key to Zone Description Following 48 Hour Incubation (size of zone of lysis): 0: No detectable zone around or under specimen; 1: Zone limited to area under specimen; 2: Zone extends less than 0.5 cm beyond specimen; 3: Zone extends 0.5 to 1.0 cm beyond specimen; 4: Zone extends greater than 1.0 cm beyond specimen but does not involve entire dish; 5: Zone involves entire dish
Settings: L929 monolayer, replicate wells
Procedure: ASTM F895-84 Test Method was Utilized.
The Sample was analyzed as described in ASTM F895-84 and ISO 10993-5. Monolayers of L929 cells were grown in six 150 mm cell culture plates (Corning, USA). Following 24 hours to cell passage, the plates were over-layed with agar supplemented dMEM/FBS media as described by the ASTM method. One hundred milligrams of the provided samples was added to the center of four of the over-layed wells. One well was left undisturbed as this served as negative control. An additional well was inoculated with a 2 cm^2 piece of latex rubber. The cells were then incubated in 5% carbon dioxide at 36.5° C.±1 for 24 hours. The plates and cells were evaluated macro and microscopically for signs of malformation, degeneration, sloughing, or lysis of the cells within the zone directly beneath and surrounding the discs. Cells were then re-incubated for an additional 24 hours at the conditions described above and evaluated again. The size of the zone surrounding the inoculated area was evaluated for signs of cell growth inhibition and/cell lysis.
Table 3 contains the numerical values describing the size of zone of lysis surrounding the inoculums as per the ASTM standards. Table 4 contains the relative numerical value describing the number of cells affected within the zone of inhibition or toxicity. Each sample observed is assigned a numerical value based on cellular degradation and/or cell death.
Briefly, number 0=unchanged/no evident cytotoxicity; 5=complete monolayer destruction and severe cytotoxicity. The ASTM and ISO 10993-5 consider a scoring of 3 or higher as toxic.

Question: For `Oc1ccccc1` [(+) Control, Phenol], which “Cell Description Following 24 Hour Incubation (condition of cells within the zone of lysis)” value (24 Hour Incubation) is on record?
Answer: 5 (Greater than 80% of zone affected of zone affected)

Question: What about the “Zone Description Following 24 Hour Incubation (size of zone of lysis)” value (24 Hour Incubation) of the same compound?
Answer: 4 (Zone extends greater than 1.0 cm beyond specimen but does not involve entire dish)

Question: What about the “Cell Description Following 48 Hour Incubation (condition of cells within the zone of lysis)” value (48 Hour Incubation) of the same compound?
Answer: 5 (Greater than 80% of zone affected of zone affected)

Question: What about the “Zone Description Following 48 Hour Incubation (size of zone of lysis)” value (48 Hour Incubation) of the same compound?
Answer: 5

— patent US20150044136A1, “Ophthalmological treatment for michobial infections” (priority 2013, published 2015)
